Assay results reported in ChEMBL document CHEMBL5506015, “Discovery of a Meisoindigo-Derived PROTAC as the ATM Degrader: Revolutionizing Colorectal Cancer Therapy via Synthetic Lethality with ATR Inhibitors” (J Med Chem, 2024).
Calls of active or inactive are those of the source. No cut-off for these calls is given here.

Assays:
SW480 [1] = experiment: Cytotoxicity against human SW480 cells transfected with ATM shRNA assessed as reduction in cell viability measured after 48 hrs by MTT assay; conditions: SW480, 48 h
SW-620 [2] = experiment: Antitumor activity against human SW620 cells xenografted in Balb/c nude mouse model assessed as reduction in tumor load at 15 mg/kg/day administered for 14 days in presence of AZD6738 by vernier caliper based analysis; type: functional, organism-based; conditions: time 14.0 day
SW-620 [3] = experiment: Induction of DNA damage in human SW620 cells assessed as accumulation of phosphorylated-chk2 (Thr68) measured after 12 hrs by immunoblot analysis; type: functional, cell-based; conditions: dose 2.5-10 µM
SW480 [4] = experiment: Potentiation of AZD6738 induced DNA damage in human SW480 cells assessed as gamma-H2AX accumulation in nuclei at 5 uM incubated for 12 hrs by immunohistochemical staining based analysis; type: functional, cell-based
SW-620 [5] = experiment: Cytotoxicity against human SW620 cells assessed as reduction in cell viability incubated for 48 hrs by MTT assay; conditions: SW-620, 48 h
K562 [6] = experiment: Induction of DNA damage in human K562 cells assessed as accumulation of phosphorylated-chk2 (Thr68) measured after 8 hrs by immunoblot analysis; type: functional, cell-based
LoVo = experiment: Cytotoxicity against human LoVo cells assessed as reduction in cell viability incubated for 48 hrs by MTT assay
SW-620 [7] = experiment: Upregulation of cleaved caspase 3 level in human SW620 cells at 1.25 to 10 uM measured after 12 hrs by immunoblot analysis; type: functional, cell-based; conditions: dose 1.25-10 µM
HCT-116 = experiment: Cytotoxicity against human HCT-116 cells transfected with NC shRNA assessed as reduction in cell viability measured after 48 hrs by MTT assay; conditions: HCT-116, 48 h
SW480 [8] = experiment: Downregulation of BCL2 level in human SW480 cells at 5 to 20 uM measured after 8 hrs by immunoblot analysis; type: functional, cell-based; conditions: dose 5-20 µM
SW-620 [9] = experiment: Induction of apoptosis in human SW620 cells measured after 12 hrs by Annexin V-FITC/propidium iodide staining-based flow cytometric analysis; type: functional, cell-based; conditions: dose 5-10 µM
K562 [10] = experiment: Potentiation of AZD6738 induced DNA damage in human K562 cells assessed as gamma-H2AX accumulation in nuclei at 5 uM incubated for 12 hrs by immunohistochemical staining based analysis; type: functional, cell-based
SW-620 [11] = experiment: Induction of cell cycle arrest in human SW620 cells assessed as accumulation of cells at G0/G1 phase incubated for 12 hrs by flow cytometry based analysis; type: functional; conditions: dose 5-10 µM
SW-620 [12] = experiment: Induction of DNA damage in human SW620 cells assessed as gamma-H2AX accumulation at 10 uM by immunoblot analysis; type: functional, cell-based; conditions: time <= 24.0 hrs, TDE = time-dependent effect
[13] = Toxicity in Balb/c nude mouse assessed as effect on body weight loss at 15 mg/kg/day administered for 14 days in presence of AZD6738 […]; type: organism-based; conditions: in vivo, 336 h, time 14 day
SW-620 [14] = experiment: Antitumor activity against human SW620 cells xenografted in Balb/c nude mouse model assessed as decrease in BCL2 protein level at 15 mg/kg/day measured after 14 days by Western blot analysis; type: functional, organism-based; conditions: time 14.0 day
[15] = Toxicity in Balb/c nude mouse assessed as effect on body weight loss at 15 mg/kg/day administered for 14 days […]; type: organism-based; conditions: in vivo, 336 h, time 14 day
[16] = Toxicity in Balb/c nude mouse assessed as drug tolerance at 15 mg/kg/day administered for 14 days; type: organism-based; conditions: in vivo, 336 h, time 14 day
[17] = Downregulation of ATM level in human SW480 cells transfected with ATM shRNA by immunoblot analysis; type: functional
SW-620 [18] = experiment: Downregulation of KDM4B level in human SW620 cells measured after 12 hrs by immunoblot analysis; type: functional, cell-based; conditions: dose 1.25-10 µM
[19] = Cytotoxicity against human HIEC-6 cells assessed as reduction in cell viability incubated for 48 hrs by MTT assay; type: toxicity, cell-based
COLO 205 = experiment: Cytotoxicity against human COLO 205 cells assessed as reduction in cell viability incubated for 48 hrs by MTT assay; conditions: COLO 205, 48 h
SW-620 [20] = experiment: Downregulation of KDM4B level in human SW620 cells at 10 uM measured after 12 hrs in presence of tert-butyl ((S)-1-((2S,4R)-4-hydroxy-2-((4-(4-methylthiazol-5-yl)benzyl)carbamoyl)pyrrolidin-1-yl)-3,3-dimethyl-1-oxobutan-2-yl)carbamate by immunoblot analysis; type: functional, cell-based
SW-620 [21] = experiment: Antitumor activity against human SW620 cells xenografted in Balb/c nude mouse model assessed as decrease in ATM protein level at 15 mg/kg/day measured after 14 days by Western blot analysis; type: functional, organism-based; conditions: time 14.0 day
SW-620 [22] = experiment: Cytotoxicity against human SW620 cells transfected with NC shRNA assessed as reduction in cell viability measured after 48 hrs by MTT assay; conditions: SW-620, 48 h
SW-620 [23] = experiment: Antitumor activity against human SW620 cells xenografted in Balb/c nude mouse model assessed as increase in cleaved-caspase 3 level at 15 mg/kg/day measured after 14 days by Western blot analysis; type: functional, organism-based; conditions: time 14.0 day
SW-620 [24] = experiment: Antitumor activity against human SW620 cells xenografted in Balb/c nude mouse model assessed as necrosis at 15 mg/kg/day measured after 14 days by H and E staining based analysis; type: functional, organism-based; conditions: time 14.0 day

Cc1ncsc1-c1ccc(CNC(=O)[C@@H]2C[C@@H](O)CN2C(=O)[C@@H](NC(=O)CCCCCn2cc(CCCN3C(=O)/C(=C4/C(=O)Nc5ccccc54)c4ccccc43)nn2)C(C)(C)C)cc1
IC50 (SW480 [1]): 12.1 µM | Activity (SW-620 [2]): Active | Activity (SW-620 [3]): Dose-Dependent Effect | Activity (SW480 [4]): Active | IC50 (SW-620 [5]): 3.7 µM | Activity (K562 [6]): Dose-Dependent Effect | IC50 (LoVo): 6.73 µM | Activity (SW-620 [7]): Active | IC50 (HCT-116): 5.82 µM | Activity (SW480 [8]): Active | Activity (SW-620 [9]): Dose-Dependent Effect | Activity (K562 [10]): Active | Activity (SW-620 [11]): Dose-Dependent Effect | Activity (SW-620 [12]): Tde | Activity [13]: Non-Toxic | Activity (SW-620 [14]): Active | Activity [15]: Non-Toxic | Activity [16]: Non-Toxic | Activity [17]: 23% | Activity (SW-620 [18]): Dose-Dependent Effect | IC50 at 48 h ([19]; HIEC-6 cells): 23.9 µM | Activity ([19]; hiec-6, 48 h, dose 0.01-50 µM, time 48 hrs): Dose-Dependent Effect | IC50 (COLO 205): 5.11 µM | Activity (SW-620 [20]): Active | Activity (SW-620 [21]): Active | IC50 (SW-620 [22]): 3.7 µM | Activity (SW-620 [23]): Active | Activity (SW-620 [24]): Active
